Measurements: patent US20180042925A1, “METHODS FOR TREATING CANCER” (CHILDREN'S HOSPITAL MEDICAL CENTER, priority 2015, published 2018)

Columns and labels:
G62 cells = assay: CellTiter Glo cell viability assay, pharmacological SCD1 inhibition; assay type: cell-based, human; details: vs vehicle (DMSO), FIG. 2B
Method: For the pharmacological inhibition studies of FIGS. 2B and 2C, an equal number of G62 cells was seeded in 96 wells in the presence of SCD1 inhibitor or vehicle (DMSO) in quadruplicate. Viable cells were quantified at indicated times using CellTiter Glo cell viability assay kit (Promega).

G68 cells = assay: as above; assay type: cell-based, human; details: vs vehicle (DMSO), FIG. 2C

Compound: Cc1nnc(-c2ccc(N3CCC(Oc4cc(F)ccc4Cl)CC3)nn2)o1 [CAY10566, 3-[4-(2-chloro-5-fluorophenoxy)-1-piperidinyl]-6-(5-methyl-1,3,4-oxadiazol-2-yl)-pyridazine]
- cell viability in the presence or absence of CAY10566 (G62 cells): induction of G62 cell death and growth inhibition
- cell viability in the presence or absence of CAY10566 (G68 cells): induction of G68 cell death and growth inhibition
